PubChem BioAssay AID624326 (Sanford-Burnham Center for Chemical Genomics, 2012)
The source made the active and inactive calls.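 How the source made its calls: active means half-inhibitory concentration against fatty acid synthase thioesterase at or below 20 µM; inactive means the rest.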

Molecular target: Fatty acid synthase (Homo sapiens) (UniProt P49327)
Assay: FAS thioesterase domain inhibitors, dose response, biochemical, kinetic fluorescence intensity (AID 624326)
Settings: recombinant FAS-TE, OMFH fluorogenic substrate

Sequence of Fatty acid synthase (Homo sapiens) (P49327 whole entry, looked up, the tested form may be a part): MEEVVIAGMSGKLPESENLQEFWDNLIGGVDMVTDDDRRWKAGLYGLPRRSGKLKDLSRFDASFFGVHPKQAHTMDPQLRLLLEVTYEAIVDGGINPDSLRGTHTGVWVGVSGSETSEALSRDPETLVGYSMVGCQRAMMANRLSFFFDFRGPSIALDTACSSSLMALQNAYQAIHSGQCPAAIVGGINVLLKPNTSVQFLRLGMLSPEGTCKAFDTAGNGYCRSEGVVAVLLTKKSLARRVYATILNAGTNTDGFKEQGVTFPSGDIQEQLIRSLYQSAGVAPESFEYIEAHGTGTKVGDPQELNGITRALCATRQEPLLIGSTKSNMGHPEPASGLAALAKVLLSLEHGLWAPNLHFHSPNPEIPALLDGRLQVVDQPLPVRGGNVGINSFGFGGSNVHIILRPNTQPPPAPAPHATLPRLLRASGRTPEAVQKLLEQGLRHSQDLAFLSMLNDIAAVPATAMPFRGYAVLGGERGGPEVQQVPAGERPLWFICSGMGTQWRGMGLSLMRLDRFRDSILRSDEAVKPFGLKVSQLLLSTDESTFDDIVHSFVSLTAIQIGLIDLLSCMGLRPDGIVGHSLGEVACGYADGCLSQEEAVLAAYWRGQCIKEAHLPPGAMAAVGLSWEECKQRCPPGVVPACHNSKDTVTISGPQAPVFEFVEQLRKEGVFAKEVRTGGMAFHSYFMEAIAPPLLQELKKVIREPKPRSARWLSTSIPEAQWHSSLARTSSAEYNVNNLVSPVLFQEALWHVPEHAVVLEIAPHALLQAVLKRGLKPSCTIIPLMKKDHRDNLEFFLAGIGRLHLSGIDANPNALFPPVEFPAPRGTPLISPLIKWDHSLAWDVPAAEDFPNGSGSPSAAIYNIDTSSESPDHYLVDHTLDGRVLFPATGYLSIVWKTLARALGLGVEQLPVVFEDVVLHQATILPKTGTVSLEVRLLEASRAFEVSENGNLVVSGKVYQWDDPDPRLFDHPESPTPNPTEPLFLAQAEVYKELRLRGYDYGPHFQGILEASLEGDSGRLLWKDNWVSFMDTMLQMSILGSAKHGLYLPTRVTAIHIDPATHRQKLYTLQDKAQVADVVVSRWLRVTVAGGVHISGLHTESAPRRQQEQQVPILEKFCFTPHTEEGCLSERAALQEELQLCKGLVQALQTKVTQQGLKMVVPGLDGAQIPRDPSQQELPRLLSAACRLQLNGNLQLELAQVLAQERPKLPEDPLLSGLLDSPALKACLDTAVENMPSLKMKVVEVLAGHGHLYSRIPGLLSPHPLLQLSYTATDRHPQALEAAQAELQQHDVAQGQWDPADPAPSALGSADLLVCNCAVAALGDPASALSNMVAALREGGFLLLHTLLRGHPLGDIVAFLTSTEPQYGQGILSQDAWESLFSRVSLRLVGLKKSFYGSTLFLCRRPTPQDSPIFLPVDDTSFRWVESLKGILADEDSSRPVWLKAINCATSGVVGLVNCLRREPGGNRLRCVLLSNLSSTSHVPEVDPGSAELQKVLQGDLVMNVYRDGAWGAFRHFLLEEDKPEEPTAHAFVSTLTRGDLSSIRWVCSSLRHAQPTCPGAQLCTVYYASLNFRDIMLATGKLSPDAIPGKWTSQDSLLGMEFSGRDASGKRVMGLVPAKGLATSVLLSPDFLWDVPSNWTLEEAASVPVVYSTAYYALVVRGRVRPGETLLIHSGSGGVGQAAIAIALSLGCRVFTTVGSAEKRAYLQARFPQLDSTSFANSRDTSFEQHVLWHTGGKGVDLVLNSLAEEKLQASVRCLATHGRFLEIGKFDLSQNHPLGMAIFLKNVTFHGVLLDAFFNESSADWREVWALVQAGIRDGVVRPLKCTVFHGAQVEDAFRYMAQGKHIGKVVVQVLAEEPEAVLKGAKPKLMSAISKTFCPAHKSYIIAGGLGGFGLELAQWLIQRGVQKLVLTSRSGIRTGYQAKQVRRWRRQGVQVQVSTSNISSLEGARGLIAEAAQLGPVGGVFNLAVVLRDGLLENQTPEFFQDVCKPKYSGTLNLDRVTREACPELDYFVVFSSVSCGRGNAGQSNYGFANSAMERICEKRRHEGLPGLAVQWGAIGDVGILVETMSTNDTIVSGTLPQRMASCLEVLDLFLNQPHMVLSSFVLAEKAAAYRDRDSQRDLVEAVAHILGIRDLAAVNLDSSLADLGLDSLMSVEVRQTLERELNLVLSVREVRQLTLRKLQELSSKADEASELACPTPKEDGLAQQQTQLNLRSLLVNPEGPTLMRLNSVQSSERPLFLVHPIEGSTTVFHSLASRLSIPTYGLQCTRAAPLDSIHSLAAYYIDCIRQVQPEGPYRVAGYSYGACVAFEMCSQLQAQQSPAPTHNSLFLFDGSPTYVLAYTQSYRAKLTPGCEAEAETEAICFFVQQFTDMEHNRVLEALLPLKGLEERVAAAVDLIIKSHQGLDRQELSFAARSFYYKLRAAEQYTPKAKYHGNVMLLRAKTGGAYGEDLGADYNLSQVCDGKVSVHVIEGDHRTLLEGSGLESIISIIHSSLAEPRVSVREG

| Compound | IC50 |
| --- | --- |
| CCCCC(=O)Nc1nc(-c2ccc(S(=O)(=O)N3CCOCC3)cc2)cs1 | 206 nM |
| CCC(C)(C)C1CCC(=NNS(=O)(=O)c2ccc(C)c([N+](=O)[O-])c2)CC1 (configuration not stated) | inactive |
